{
  "source": "paper PMC2790889",
  "about": "(Nucleic Acids Research, 2009)",
  "key": {"GidA [1]": {"target": "T1, GidA (Escherichia coli, UniProt P0A6U3)", "T1 sequence (P0A6U3 1-629)": "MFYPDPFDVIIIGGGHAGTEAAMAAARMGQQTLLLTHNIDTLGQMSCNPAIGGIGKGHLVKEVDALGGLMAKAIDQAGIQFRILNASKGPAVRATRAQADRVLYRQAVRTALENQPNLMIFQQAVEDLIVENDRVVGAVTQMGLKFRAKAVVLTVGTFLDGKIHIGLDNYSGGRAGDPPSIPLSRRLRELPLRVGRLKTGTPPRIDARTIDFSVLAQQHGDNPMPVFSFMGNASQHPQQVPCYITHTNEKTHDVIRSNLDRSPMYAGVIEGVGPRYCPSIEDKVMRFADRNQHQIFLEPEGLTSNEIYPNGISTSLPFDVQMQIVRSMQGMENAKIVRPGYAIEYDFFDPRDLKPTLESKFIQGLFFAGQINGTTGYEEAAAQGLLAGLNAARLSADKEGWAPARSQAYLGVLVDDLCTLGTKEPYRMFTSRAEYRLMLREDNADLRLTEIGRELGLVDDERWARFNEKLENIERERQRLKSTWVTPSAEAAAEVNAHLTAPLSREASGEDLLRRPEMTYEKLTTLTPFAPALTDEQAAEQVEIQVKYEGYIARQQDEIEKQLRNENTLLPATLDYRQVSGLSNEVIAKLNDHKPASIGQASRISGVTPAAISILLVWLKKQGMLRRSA", "experiment": "Affinity of GidA for FAD and NADH", "assay_type": "binding"}, "GidA [2]": {"target": "T1, GidA", "settings": "read-out: Kd (affinity of GidA for NADH); cited from earlier work"}, "TrmFO": {"system": "TrmFO", "settings": "cited from earlier work"}},
  "note": "Read-outs that look alike come from different tables or passages of the source.",
  "data": [
    {"compound": "Cc1cc2nc3c(=O)[nH]c(=O)nc-3n(C[C@H](O)[C@H](O)[C@H](O)COP(=O)(O)OP(=O)(O)OC[C@H]3O[C@@H](n4cnc5c(N)ncnc54)[C@H](O)[C@@H]3O)c2cc1C", "note": "[FAD]", "values": [
      {"measurement": "Kd", "setting": "GidA [1]", "result": "~3", "unit": "µM"}
    ]},
    {"compound": "NC(=O)C1=CN([C@@H]2O[C@H](COP(=O)(O)OP(=O)(O)OC[C@H]3O[C@@H](n4cnc5c(N)ncnc54)[C@H](O)[C@@H]3O)[C@@H](O)[C@H]2O)C=CC1", "note": "[NADH]", "values": [
      {"measurement": "Kd", "setting": "GidA [2]", "result": "~11", "unit": "µM"}
    ]},
    {"compound": "(6S) THF", "values": [
      {"measurement": "concentrations of THF that inhibit the methylene-THF-dependent activity of TrmFO", "setting": "TrmFO", "result": "higher than 2 µM"}
    ]}
  ]
}
